Test results taken from publication PMC6412401 (Molecules, 2019).
Entries after “also recorded” stand apart in the source; their conditions may differ.

Key:
Type in all cases: biochemical
recombinant human MAO-B [1] = biological target: T1, recombinant human MAO-B (Homo sapiens, UniProt P27338); assay: Time-dependent assay for enzyme inhibition; settings: 0.500 μM; pre-incubation 0–15 min
T1 construct: purchased BD Biosciences (Bedford, MA, USA)
T1 sequence (P27338 1-520): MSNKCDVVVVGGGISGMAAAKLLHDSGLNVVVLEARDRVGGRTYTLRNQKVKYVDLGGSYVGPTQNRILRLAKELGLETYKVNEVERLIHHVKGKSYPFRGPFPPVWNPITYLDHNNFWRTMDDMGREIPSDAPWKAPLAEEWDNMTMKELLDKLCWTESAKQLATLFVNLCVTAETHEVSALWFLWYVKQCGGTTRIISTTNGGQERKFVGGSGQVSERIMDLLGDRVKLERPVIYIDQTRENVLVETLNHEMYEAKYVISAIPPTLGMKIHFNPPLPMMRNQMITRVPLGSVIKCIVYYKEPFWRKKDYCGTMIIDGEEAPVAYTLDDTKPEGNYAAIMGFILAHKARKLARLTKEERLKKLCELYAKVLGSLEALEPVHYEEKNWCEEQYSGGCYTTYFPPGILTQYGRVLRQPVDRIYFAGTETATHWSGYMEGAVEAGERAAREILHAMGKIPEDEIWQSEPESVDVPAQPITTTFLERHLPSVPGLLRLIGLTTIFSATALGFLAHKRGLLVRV
Method: The control without inhibitors was also run simultaneously. The activity of the enzyme was determined, as described above, and the percentage of enzyme activity remaining was plotted against the pre-incubation time to determine the time-dependence of inhibition.
The controls without inhibitors were also simultaneously run. The activities of the enzymes were determined, as described above, and the percentage of enzyme activity remaining was plotted against the pre-incubation time to determine the time-dependence of inhibition.

recombinant human MAO-B [2] = biological target: T1, recombinant human MAO-B; assay: Enzyme kinetics and mechanism studies (Lineweaver-Burk); settings: for Type of Inhibition Monoamine Oxidase-B: mechanism / reversibility
Method: The assays were run at varying concentrations of the substrate and fixed concentrations of the inhibitor. The Ki (i.e., inhibition/binding affinity) values were computed with double reciprocal Lineweaver–Burk plots.
The controls without inhibitor were also simultaneously run. The results were analyzed by standard double reciprocal Line–Weaver Burk plots for computing Km and Vmax values, which were further analyzed to determine Ki values.

recombinant human MAO-A = biological target: T2, recombinant human MAO-A (Homo sapiens, UniProt P21397); assay: MAO-A inhibition assay (kynuramine oxidative deamination); settings: kynuramine 80 μM; mean ± S.D. of at least triplicate observations
T2 construct: purchased BD Biosciences (Bedford, MA, USA)
T2 sequence (P21397 1-527): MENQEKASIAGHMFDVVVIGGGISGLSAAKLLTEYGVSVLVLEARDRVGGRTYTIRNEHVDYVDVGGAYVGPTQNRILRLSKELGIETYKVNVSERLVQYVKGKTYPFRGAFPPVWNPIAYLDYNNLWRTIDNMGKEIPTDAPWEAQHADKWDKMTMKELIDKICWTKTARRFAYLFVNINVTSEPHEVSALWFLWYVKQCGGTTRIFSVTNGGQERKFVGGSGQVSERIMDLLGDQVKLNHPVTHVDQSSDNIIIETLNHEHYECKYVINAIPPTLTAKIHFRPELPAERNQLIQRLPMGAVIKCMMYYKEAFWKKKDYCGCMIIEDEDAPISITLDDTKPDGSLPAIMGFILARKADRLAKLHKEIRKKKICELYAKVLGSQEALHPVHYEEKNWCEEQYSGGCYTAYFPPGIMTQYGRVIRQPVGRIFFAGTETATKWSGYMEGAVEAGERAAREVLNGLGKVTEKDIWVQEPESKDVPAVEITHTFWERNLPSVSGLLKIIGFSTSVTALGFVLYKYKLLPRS
Method: (§1) To investigate the effect of the isolated constituents from T. diffusa on recombinant human MAO-A and MAO-B, the kynuramine oxidative deamination assay was performed in 384-well plates, as previously reported, with minor modifications. A single fixed concentration of kynuramine substrate and varying concentrations of inhibitor were used to test enzyme inhibition and determine the IC50 values. Kynuramine concentrations for MAO-A and MAO-B were 80 μM and 50 μM, respectively. These concentrations of kynuramine were twice the apparent KM value for substrate binding. The concentrations that were tested for pure constituents were from 0.01 to 100 μM, for MAO-A and MAO-B inhibition assays. Reactions were performed in a clear 384-well microplate (50 μL) with 0.1 M potassium phosphate buffer, pH 7.4. The inhibitors and compounds were dissolved in DMSO, diluted in the buffer solution, and pre-incubated at 37 °C for 10 min (no more than 1.0% DMSO final concentration). […] The enzyme product 4-hydroxyquinoline formation was recorded fluorometrically using a SpectraMax M5 fluorescence plate reader (Molecular Devices, Sunnyvale, CA, USA) with an excitation (320 nm) and emission (380 nm) wavelength, using the SoftMaxPro 6.0 program. The inhibition effects of enzyme activity were calculated as a percent of product formation when compared to the corresponding control (enzyme-substrate reaction) without inhibitors. Controls, including samples in which the enzyme or the substrate was added after stopping the reactions, were simultaneously checked to determine the interference of inherent fluorescence of the test compounds with the measurements. IC50 values for MAO-A and MAO-B inhibition were calculated from the concentration dependent inhibition curves using XLfit, a Microsoft Excel-based plug-in which performs Regression, curve fitting and statistical analysis (IDBS, Bridgewater, NJ, USA).
(§2) The dose-response curves were generated using Microsoft® Excel and the IC50 values were analyzed using XLfit software.

recombinant human MAO-B [3] = biological target: T1, recombinant human MAO-B; assay: MAO-B inhibition assay (kynuramine oxidative deamination); settings: for SI MAO-A/-B: Selectivity Index = IC50 MAO-A/IC50 MAO-B; for IC50: kynuramine 50 μM, mean ± S.D. of at least triplicate observations
Method: as §1, §2

recombinant human MAO-B [4] = biological target: T1, recombinant human MAO-B; assay: Reversibility of binding, enzyme-inhibitor complex equilibrium dialysis
Method: The activity of the enzyme was analyzed before and after the dialysis (Figure 4).
The inhibitors bind with the target enzyme through the formation of an enzyme-inhibitor complex. The formation of the enzyme-inhibitor complex may be accelerated in the presence of the high concentration of the inhibitor. […] After 20 min incubation at 37 °C, the reaction was stopped by chilling in an ice bath. All of the samples were dialyzed against potassium phosphate buffer (25 mM; pH 7.4) at 4 °C for 14–18 h (three buffer changes). Control enzyme (without inhibitor) was also run through the same procedure and the activity of the enzyme was determined before and after the dialysis.

COc1ccc(-c2cc(=O)c3c(O)cc(OC)cc3o2)cc1 [Acacetin 7-methyl ether, 5-hydroxy-4′, 7-dimethoxyflavone]
time dependence of binding/inhibition of MAO-B (recombinant human MAO-B [1]): time-independent; also recorded: not dependent on the pre-incubation time
Type of Inhibition Monoamine Oxidase-B (recombinant human MAO-B [2]): Competitive/Partially Reversible
Type of Inhibition Monoamine Oxidase-B (recombinant human MAO-B [2]; listed as acacetin 7-methyl ether): reversible competitive inhibitor
Ki (recombinant human MAO-B [2]; varying kynuramine, mean ± S.D. of triplicate experiments, read-out: Ki Monoamine Oxidase-B): 0.045 ± 0.003 µM
IC50 (recombinant human MAO-A): > 100 µM
selectivity for MAO-B over MAO-A (recombinant human MAO-B [3]): > 500 fold
SI MAO-A/-B (recombinant human MAO-B [3]): >505.051
plateau of concentration-dependent inhibition of MAO-B (recombinant human MAO-B [3]; higher concentrations, ~20% activity remaining): ~ 80 % inhibition
IC50 (recombinant human MAO-B [3]): 0.198 ± 0.001 µM
inhibition of MAO-B activity after incubation, before dialysis (recombinant human MAO-B [4]; 1.0 and 2.0 μM, 20 min incubation): > 60%
activity of the enzyme recovered after equilibrium dialysis (recombinant human MAO-B [4]; 1.0 and 2.0 μM, dialyzed overnight): ~ 80%
reversibility of binding to MAO-B (recombinant human MAO-B [4]; equilibrium dialysis): partially reversible

COc1ccc(-c2cc(=O)c3c(O)cc(O)cc3o2)cc1 [Acacetin]
Type of Inhibition Monoamine Oxidase-B (recombinant human MAO-B [2]): Competitive/Reversible
IC50 (recombinant human MAO-A): 0.115 ± 0.004 µM

O=C(/C=C/c1ccc(O)cc1)OC[C@H]1O[C@@H](Oc2cc(O)c3c(=O)cc(-c4ccc(O)cc4)oc3c2)[C@H](O)[C@@H](O)[C@@H]1O [Apigenin-7-O-β-D-(6-O-p-coumaroyl) glucoside]
IC50 (recombinant human MAO-A): 22.5 ± 4.44 µM
SI MAO-A/-B (recombinant human MAO-B [3]): 1.023
IC50 (recombinant human MAO-B [3]): 22 ± 1.76 µM

C[C@@H]1O[C@@H](O[C@@H]2[C@@H](O)[C@H](O)[C@@H](CO)O[C@H]2c2c(O)cc(O)c3c(=O)cc(-c4ccc(O)cc4)oc23)[C@H](O)[C@H](O)[C@H]1O [Rhamnosylvitexin]
IC50 (recombinant human MAO-A): 40.9 ± 6.81 µM
SI MAO-A/-B (recombinant human MAO-B [3]): 1.557
IC50 (recombinant human MAO-B [3]): 26.3 ± 0.277 µM

COc1cc(-c2cc(=O)c3c(O)cc(O[C@@H]4O[C@H](CO)[C@@H](O)[C@H](O)[C@H]4O)cc3o2)cc(OC)c1O [Tricin-7-glucoside]
IC50 (recombinant human MAO-A): 50.9 ± 0.506 µM
SI MAO-A/-B (recombinant human MAO-B [3]): 1.854
IC50 (recombinant human MAO-B [3]): 27.4 ± 0.819 µM

COc1cc(O)c2c(=O)cc(-c3ccc(O)c(OC)c3)oc2c1 [Vetulin]
IC50 (recombinant human MAO-A): 18.8 ± 0.291 µM
SI MAO-A/-B (recombinant human MAO-B [3]): 42.056
IC50 (recombinant human MAO-B [3]): 0.447 ± 0.01 µM
